Calls of active or inactive are those of the source. The calls are words filed in the database; no cut-off is given here.
Legend:
MCF7 [1] = assay: Cytotoxicity against human MCF7 cells assessed as inhibition of cell viability after 48 hrs by MTT assay; format: functional, cell-based
SMMC-7721 = assay: Cytotoxicity against human SMMC7721 cells assessed as inhibition of cell viability after 48 hrs by MTT assay; format: functional, cell-based
Mus musculus [2] = assay: Toxicity in mouse assessed as body weight loss at 0.43 mmol, ip; format: organism-based; details: in vivo
Mus musculus [3] = assay: Toxicity in BALB/c nude mouse assessed as body weight at 0.023 mmol/kg, ip administered every 2 days for 3 times measured on day 6 (reference value: 17.5 to 17.9 gms); format: organism-based; details: in vivo
Mus musculus [4] = assay: Toxicity in BALB/c nude mouse assessed as animal death at 0.023 mmol/kg, ip administered every 2 days for 3 times measured on day 6; format: organism-based; details: in vivo, 48 h
Mus musculus [5] = assay: Toxicity in mouse assessed as animal death at 0.43 mmol, ip; format: organism-based; details: in vivo
MCF7 [6] = assay: Antitumor activity against human MCF7 cells xenografted in BALB/c nude mouse assessed as decrease in tumor volume at 0.023 mmol/kg, ip administered every 2 days for 3 times measured after day 6; format: functional
[7] = target: Serotransferrin (Homo sapiens) (UniProt P02787); assay: Binding affinity to transferrin (unknown origin) assessed as Stem-Volmer quenching constant at 310K by fluorescence spectroscopy
Chain of Serotransferrin (Homo sapiens) (P02787 whole entry): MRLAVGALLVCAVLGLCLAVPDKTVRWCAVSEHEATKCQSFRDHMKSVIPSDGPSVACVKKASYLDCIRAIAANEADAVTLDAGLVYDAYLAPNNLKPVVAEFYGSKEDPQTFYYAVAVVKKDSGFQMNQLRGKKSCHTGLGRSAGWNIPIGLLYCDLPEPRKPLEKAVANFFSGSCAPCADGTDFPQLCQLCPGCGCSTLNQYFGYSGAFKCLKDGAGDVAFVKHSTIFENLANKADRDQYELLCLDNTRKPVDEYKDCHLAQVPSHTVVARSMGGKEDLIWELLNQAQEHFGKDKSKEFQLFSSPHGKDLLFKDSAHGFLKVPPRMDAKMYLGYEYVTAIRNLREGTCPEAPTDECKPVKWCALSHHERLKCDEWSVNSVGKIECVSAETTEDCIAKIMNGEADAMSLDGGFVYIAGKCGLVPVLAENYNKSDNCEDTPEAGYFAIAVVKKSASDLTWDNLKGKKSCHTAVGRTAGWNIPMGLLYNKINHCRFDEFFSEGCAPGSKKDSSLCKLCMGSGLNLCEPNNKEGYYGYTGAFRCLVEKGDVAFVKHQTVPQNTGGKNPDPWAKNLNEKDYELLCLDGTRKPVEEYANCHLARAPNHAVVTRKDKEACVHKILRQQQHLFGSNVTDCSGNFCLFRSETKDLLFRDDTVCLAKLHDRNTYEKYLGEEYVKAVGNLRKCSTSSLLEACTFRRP

[8] = target: Serotransferrin (Homo sapiens) (UniProt P02787); assay: Binding affinity to transferrin (unknown origin) assessed as Stem-Volmer quenching constant at 298K by fluorescence spectroscopy
Albumin [9] = target: T1, Albumin (Bos taurus, UniProt P02769); assay: Binding affinity to bovine serum albumin assessed as Stem-Volmer quenching constant at 310K by fluorescence spectroscopy; format: ADME; details: cattle, isolated protein
T1 sequence (P02769 whole entry): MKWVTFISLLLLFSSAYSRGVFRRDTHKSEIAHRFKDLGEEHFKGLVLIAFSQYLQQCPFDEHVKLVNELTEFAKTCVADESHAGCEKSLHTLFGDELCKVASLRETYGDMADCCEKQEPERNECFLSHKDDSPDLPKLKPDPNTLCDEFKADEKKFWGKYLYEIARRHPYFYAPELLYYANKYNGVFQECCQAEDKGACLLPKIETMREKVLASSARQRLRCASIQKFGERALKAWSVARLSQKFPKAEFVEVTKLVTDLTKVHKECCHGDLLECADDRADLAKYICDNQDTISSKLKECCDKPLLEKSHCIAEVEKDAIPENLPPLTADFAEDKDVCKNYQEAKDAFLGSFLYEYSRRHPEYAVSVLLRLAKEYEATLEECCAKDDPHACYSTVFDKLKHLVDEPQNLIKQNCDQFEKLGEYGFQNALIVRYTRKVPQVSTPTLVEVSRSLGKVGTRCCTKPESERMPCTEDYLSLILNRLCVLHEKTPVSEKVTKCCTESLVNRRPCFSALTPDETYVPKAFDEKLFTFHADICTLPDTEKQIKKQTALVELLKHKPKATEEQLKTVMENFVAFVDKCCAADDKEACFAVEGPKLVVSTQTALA

Albumin [10] = target: T1, Albumin; assay: Binding affinity to bovine serum albumin assessed as Stem-Volmer quenching constant at 298K by fluorescence spectroscopy; format: ADME; details: cattle, isolated protein
Albumin [11] = target: T1, Albumin; assay: Binding affinity to bovine serum albumin assessed as quenching constant at 310K by fluorescence spectroscopy; format: ADME; details: cattle, isolated protein
Albumin [12] = target: T1, Albumin; assay: Binding affinity to bovine serum albumin assessed as quenching constant at 298K by fluorescence spectroscopy; format: ADME; details: cattle, isolated protein
[13] = target: Serotransferrin (Homo sapiens) (UniProt P02787); assay: Effect on transferrin (unknown origin) conformation at 4 to 20 uM by synchronous fluorescence spectroscopy
[14] = Half life in PBS solution at pH 7.4; format: ADME
[15] = Half life in mouse plasma; format: ADME, cell-free
Mus musculus [16] = assay: Toxicity in mouse assessed as body weight loss at 1.72 mmol, ip; format: organism-based; details: in vivo
Mus musculus [17] = assay: Toxicity in mouse assessed as animal death at 0.43 to 1.72 mmol, ip; format: organism-based; details: in vivo

C[C@H]1[C@H](OC(=O)CCC(=O)O)O[C@@H]2O[C@@]3(C)CC[C@H]4[C@H](C)CC[C@@H]1[C@@]24OO3 [ARTESUNATE]
inhibition (MCF7 [1]): Active
inhibition (SMMC-7721): Active
Activity (Mus musculus [2]): Toxic
Activity (Mus musculus [3]): 16.1 g
Activity (Mus musculus [4]): Non-toxic

CC[C@@]1(O)C(=O)OCc2c1cc1n(c2=O)Cc2cc3ccccc3nc2-1 [CAMPTOTHECIN]
inhibition (MCF7 [1]): Active
inhibition (SMMC-7721): Active
Activity (Mus musculus [2]): Toxic
Activity (Mus musculus [5]): Toxic
Activity (Mus musculus [3]): 11.3 g
Activity (Mus musculus [4]): Toxic
inhibition in vivo at 23 µmol/kg (MCF7 [6]): 45.3%
KSV [7]: 2.62 ×10⁴ L/mol
KSV [8]: 4.35 ×10⁴ L/mol
KSV (Albumin [9]): 3.345 ×10⁴ L/mol
KSV (Albumin [10]): 3.626 ×10⁴ L/mol
Kq (Albumin [11]): 3.345 ×10¹² L/mol/s
Kq (Albumin [12]): 3.626 ×10¹² L/mol/s
Activity [13]: inactive

CC[C@@]1(OC(=O)CCC(=O)O[C@@H]2O[C@@H]3O[C@@]4(C)CC[C@H]5[C@H](C)CC[C@@H]([C@H]2C)[C@@]35OO4)C(=O)OCc2c1cc1n(c2=O)Cc2cc3c(CN(C)C)c(O)ccc3nc2-1
half-life [14]: 15 h
half-life [15]: 4 h
inhibition (MCF7 [1]): Dose-dependent effect
inhibition (SMMC-7721): Dose-dependent effect
Activity (Mus musculus [16]): Toxic
Activity (Mus musculus [17]): Non-toxic
Activity (Mus musculus [3]): 15.5 g
Activity (Mus musculus [4]): Non-toxic
inhibition in vivo at 23 µmol/kg (MCF7 [6]): 50.2%
KSV [7]: 2.22 ×10⁴ L/mol
KSV [8]: 2.36 ×10⁴ L/mol
KSV (Albumin [9]): 1.03 ×10⁴ L/mol
KSV (Albumin [10]): 2.27 ×10⁴ L/mol
Kq (Albumin [11]): 1.03 ×10¹² L/mol/s
Kq (Albumin [12]): 2.27 ×10¹² L/mol/s
Activity [13]: inactive

CC[C@@]1(O)C(=O)OCc2c1cc1n(c2=O)Cc2cc3c(CN(C)C)c(O)ccc3nc2-1 [TOPOTECAN]
Activity (Mus musculus [3]): 13.6 g
Activity (Mus musculus [4]): Toxic
inhibition in vivo at 23 µmol/kg (MCF7 [6]): 70.2%

Source: ChEMBL document CHEMBL3580535, “The biological characteristics of a novel camptothecin-artesunate conjugate” (Bioorg Med Chem Lett, 2015)
